Data taken from patent US6620828B2, “Thiazole compounds and pharmaceutical compositions for inhibiting protein kinases and methods for their use” (Agouron Pharmaceuticals, Inc., priority 1999, dated 2003).

What was measured:
[1] = biological target: T1, CHK1 (Homo sapiens, UniProt O14757); test: CHK1 high-throughput screening; type: biochemical; conditions: for inhibition at 20 µM: read-out: % inhibition @ 20 μM, Table 4, repeated entries per example
T1 sequence (O14757 1-476): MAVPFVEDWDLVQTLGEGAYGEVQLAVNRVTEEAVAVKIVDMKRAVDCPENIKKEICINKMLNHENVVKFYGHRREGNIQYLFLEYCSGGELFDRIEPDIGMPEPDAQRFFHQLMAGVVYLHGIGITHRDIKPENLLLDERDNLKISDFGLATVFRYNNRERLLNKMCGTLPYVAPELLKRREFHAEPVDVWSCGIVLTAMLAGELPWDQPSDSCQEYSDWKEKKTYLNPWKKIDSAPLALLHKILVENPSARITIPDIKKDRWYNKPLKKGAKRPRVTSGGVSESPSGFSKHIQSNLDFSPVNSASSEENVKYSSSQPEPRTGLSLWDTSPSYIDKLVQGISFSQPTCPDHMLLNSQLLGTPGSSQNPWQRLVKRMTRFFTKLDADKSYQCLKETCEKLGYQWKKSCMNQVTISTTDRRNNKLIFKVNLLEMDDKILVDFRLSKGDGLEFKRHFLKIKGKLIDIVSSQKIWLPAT

[2] = biological target: T2, phosphorylated VEGF-R2Δ50 (FLVK-P) (Homo sapiens, UniProt P35968, DEL940-989/E990V); test: VEGF-R2 coupled spectrophotometric (FLVK-P) assay; type: biochemical; conditions: Table 1; for Ki: spectrophotometric assay
T2 construct: VEGF-R2Δ50 contains residues 806-939 and 990-1171; made in house; host or cells: baculovirus/insect cells
T2 sequence (P35968 with tags, fused parts or gaps DEL940-989/E990V limits assumed): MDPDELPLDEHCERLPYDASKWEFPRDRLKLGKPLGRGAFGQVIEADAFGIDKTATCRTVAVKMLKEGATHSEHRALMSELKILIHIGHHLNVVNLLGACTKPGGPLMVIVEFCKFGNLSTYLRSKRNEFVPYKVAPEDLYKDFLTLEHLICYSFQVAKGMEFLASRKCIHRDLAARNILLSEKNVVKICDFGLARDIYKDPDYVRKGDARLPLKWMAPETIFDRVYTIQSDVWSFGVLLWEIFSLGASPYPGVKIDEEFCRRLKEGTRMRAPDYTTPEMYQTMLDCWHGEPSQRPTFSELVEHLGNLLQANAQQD
Procedure, shortened: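 Baculovirus-expressed human VEGF-R2Δ50 (residues 806-939/990-1171, E990V) was autophosphorylated with 3 mM ATP, 40 mM MgCl2 for 2 h at 4° C. ADP formation was coupled via PK/LDH to NADH oxidation, read at 340 nm, with 5.1 mM poly(E4Y1), 1 mM ATP, 25 mM MgCl2, Hepes pH 7.5. Ki came from activity across compound concentrations.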

[3] = biological target: T3, unphosphorylated VEGF-R2Δ50 (FLVK) (Homo sapiens, UniProt P35968, DEL940-989/E990V); test: VEGF-R2 coupled spectrophotometric assay, unphosphorylated enzyme (FLVK); type: biochemical
T3 construct: VEGF-R2Δ50 contains residues 806-939 and 990-1171; made in house; host or cells: baculovirus/insect cells
T3 sequence (P35968 with tags, fused parts or gaps DEL940-989/E990V limits assumed): as above
Procedure, shortened: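 Unphosphorylated VEGF-R2Δ50 (5 to 40 nM) with 20 mM poly(E4Y1), 3 mM ATP, 60 mM MgCl2, 2 mM MnCl2 in 200 mM Hepes pH 7.5. ADP production coupled via PK/LDH to NADH oxidation, read at 340 nm. Ki from activity at varying compound concentrations.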

[4] = tested on: human umbilical vein endothelial cells (HUVEC); test: HUVEC proliferation assay; type: cell-based; conditions: Homo sapiens, HUVEC
Procedure, shortened: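 Readout was MTT dye reduction (A595) after 72 h of stimulation with VEGF at 6 ng/ml final. Compound, in 0.1% DMSO final, was added 1 h before VEGF to HUVEC starved 24 h in 1% FBS. % inhibition was scaled between VEGF-alone and unstimulated wells; IC50 was fitted from triplicate dose curves.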

[5] = tested on: lung cancer cells (line MV522); test: Cancer cell proliferation (MV522) assay; type: cell-based
Experimental: Cancer Cell Proliferation (MV522) Assay
The protocol for assessing cellular proliferation in cancer cells is similar to that used for assessments in HUVEC cells. Two thousand lung cancer cells (line MV522, acquired from American Tissue Cultural Collection) were seeded in growth media (RPMI1640 medium supplemented with 2 mM glutamine and 10% FBS). Cells are allowed to attach for 1 day prior to addition of test agents and/or vehicles. Cells are treated simultaneously with the same test agents used in the HUVEC assay. Cellular proliferation is quantified by MTT dye reduction assay 72 hours after exposure to test agents. The total length of the assay is 4 days vs. 5 for HUVEC cells because MV522 cells are not exposed to starvation medium.

inhibition at 20 µM [1] [%] | Ki [2] [nM] | Ki ([3]; Table 1) [nM] | IC50 ([5]; MV522, Table 1) [nM] | SMILES | IC50 ([4]; Table 1) [nM] | other results
-3.8 |  |  |  | COc1cc(Nc2nc(N)c(-c3nc(-c4cccc(C(=O)NCc5ccccc5)c4)cs3)s2)cc(OC)c1OC [A(32), 3-[4′-Amino-2′-(3,4,5-trimethoxy-phenylamino)-[2,5′]bithiazolyl-4-yl]-N-benzyl-benzamide] |  | 
16 |  |  |  | CCN(CC)CCCNc1nc(N)c(-c2nc(-c3cccc(NC(=O)c4ccccc4)c3)cs2)s1 [A(37), N-{3-[4′-Amino-2′-(3-diethylamino-propylamino)-[2,5′]bithiazolyl-4-yl]-phenyl}-benzamide] |  | 
-3 |  |  |  | Nc1nc(Nc2ccc3c(c2)CCC3)sc1-c1nc(-c2cccc(NC(=O)c3ccccc3)c2)cs1 [A(43)] |  | 
0.9 |  |  |  | CSc1cccc(Nc2nc(N)c(-c3nc(-c4cccc(NC(=O)c5ccccc5)c4)cs3)s2)c1 [A(46), N-{3-[4′-Amino-2′-(3-methylsulfanyl-phenylamino)-[2,5′]bithiazolyl-4-yl]-phenyl}-benzamide] |  | 
-2.9 | 84 |  |  | Nc1nc(Nc2ccc([N+](=O)[O-])cc2)sc1-c1nc(-c2cccc(NC(=O)c3ccccc3)c2)cs1 [A(56), 4-(4′-Amino-4-(3-benzamidophenyl)-[2,5′]bithiazolyl-2′-ylamino)-nitrophenyl] |  | 
 | 2 | 2.6 | > 10000 | COc1cc(Nc2nc(N)c(-c3nc(-c4cccc(NC(=O)OCc5ccccc5)c4)cs3)s2)cc(OC)c1OC [D(12), {3-[4′-Amino-2′-(3,4,5-trimethoxy-phenylamino)-[2,5′]bithiazolyl-4-yl]-phenyl}-carbamic acid benzyl ester] | 160 | 
 | 3.8 | 3.6 | > 10000 | COc1cc(Nc2nc(N)c(-c3nc(-c4cccc(NC(=O)c5sc(C)nc5C)c4)cs3)s2)cc(OC)c1OC [D(33), 2,4-Dimethyl-thiazole-5-carboxylic acid {3-[4′-amino-2′-(3,4,5-trimethoxy-phenylamino)-[2,5′]bithiazolyl-4-yl]-phenyl}-amide] | 120 | 
 | 0.34 | 0.77 | > 10000 | COc1cc(Nc2nc(N)c(-c3nc(-c4cccc(NC(=O)c5ncc(C)s5)c4)cs3)s2)cc(OC)c1OC [D(42), 5-Methyl-thiazole-2-carboxylic acid {3-[4′-amino-2′-(3,4,5-trimethoxy-phenylamino)-[2,5′]bithiazolyl-4-yl]-phenyl}-amide] | 53 | 
 | 1.6 |  | > 10000 | COc1cc(Nc2nc(N)c(-c3nc(-c4cccc(NC(=O)c5cccc(C(F)(F)F)c5)c4)no3)s2)cc(OC)c1OC [D(49), 3-[3-(3-Trifluoromethylbenzamido)phenyl]-5-[2-[(3,4,5-trimethoxyphenyl)amino]-4-amino-5-thiazolyl]-1,2,4-oxadiazole] | 15 | 

Second part, the compound before the results:

SMILES | inhibition at 20 µM [1] [%] | Ki [2] [nM] | Ki ([3]; Table 1) [nM] | IC50 ([5]; MV522, Table 1) [nM] | IC50 ([4]; Table 1) [nM] | other results
COc1cc(Nc2nc(N)c(-c3nc(-c4cccc(C(=O)NCCc5ccccc5)c4)cs3)s2)cc(OC)c1OC [A(31), 3-[4′-Amino-2′-(3,4,5-trimethoxy-phenylamino)-[2,5′]bithiazolyl-4-yl]-N-phenethyl-benzamide] | 2.5 |  |  |  |  | 
Nc1nc(NCCc2ccccc2)sc1-c1nc(-c2cccc(NC(=O)c3ccccc3)c2)cs1 [A(38), N-[3-(4′-Amino-2′-phenethylamino-[2,5′]bithiazolyl-4-yl)-phenyl]-benzamide] | 9.1 |  |  |  |  | FLVK-P % inhibition @ 0.05 ([2]; at 0.05, concentration unit not printed (head nM)): 7% @; % inhibition @ 20 μM ([1]; Table 4, repeated entries per example, 20 µM): 9.8%
COC(=O)c1cccc(Nc2nc(N)c(-c3nc(-c4cccc(NC(=O)c5ccccc5)c4)cs3)s2)c1 [A(39), 3-[4′-Amino-4-(3-benzoylaminophenyl)-[2,5′]bithiazolyl-2′-ylamino]-benzoic acid methyl ester] | 2.2 |  |  |  |  | 
Nc1nc(Nc2ccc3c(c2)OCO3)sc1-c1nc(-c2cccc(NC(=O)c3ccccc3)c2)cs1 [A(41), N-{3-[4′-Amino-2′-(benzo[1,3]dioxol-5-ylamino)-[2,5′]bithiazolyl-4-yl]-phenyl}-benzamide] | 3.8 |  |  |  |  | 
Cc1cc(C)cc(Nc2nc(N)c(-c3nc(-c4cccc(NC(=O)c5ccccc5)c4)cs3)s2)c1 [A(42), N-{3-[4′-Amino-2′-(3,5-dimethylphenylamino)-[2,5′]bithiazolyl-4-yl]-phenyl}-benzamide] | -0.1 | 7.3 |  |  |  | 
COc1ccc(Nc2nc(N)c(-c3nc(-c4cccc(NC(=O)c5ccccc5)c4)cs3)s2)cc1 [A(52), 4-(4′-Amino-4-(3-benzamidophenyl)-[2,5′]bithiazolyl-2′-ylamino)-methoxyphenyl] | 2 |  |  |  |  | 
Nc1nc(Nc2ccc(S(=O)(=O)N3CCCCC3)cc2)sc1-c1nc(-c2cccc(NC(=O)c3ccccc3)c2)cs1 [A(55), 4-(4′-Amino-4-(3-benzamidophenyl)-[2,5′]bithiazolyl-2′-ylamino)-phenylsulfonylpiperidine] | 0.1 |  |  |  |  | 
CC(=O)c1ccc(Nc2nc(N)c(-c3nc(-c4cccc(NC(=O)c5ccccc5)c4)cs3)s2)cc1 [A(58), 4-(4′-Amino-4-(3-benzamidophenyl)-[2,5′]bithiazolyl-2′-ylamino)-acetophenone] | -7.2 |  |  |  |  | 
CNc1nc(N)c(-c2nc(-c3cc(NC(=O)c4cccc(OC)c4)ccc3C)no2)s1 [B(17), N-(3-{5-[4-Amino-2-(3,4,5-methylamino)-thiazol-5-yl]-[1,2,4]oxadiazol-3-yl]-4-methyl-phenyl}-3-methoxy-benzamide] |  |  |  |  |  | Ki ([3]; Table 3, some entries 'Slow binder'): 3.4 nM; IC50 ([4]; Table 3): 63 nM; IC50 ([5]; MV522, Table 3): 1300 nM
COc1cc(Nc2nc(N)c(-c3nc(-c4cccc(NC(=O)c5ccccc5)c4)cs3)s2)cc(OC)c1OC [D(24), N-{3-[4′-Amino-2′-(3,4,5-trimethoxy-phenylamino)-[2,5′]bithiazolyl-4-yl]-phenyl}-benzamide] |  | 1.8 | 2 | > 10000 | 110 | 
COc1cc(Nc2nc(N)c(-c3nc(-c4cccc(NC(=O)c5cccc(Cl)c5)c4)cs3)s2)cc(OC)c1OC [D(40), N-{3-[4′-Amino-2′-(3,4,5-trimethoxy-phenylamino)-[2,5′]bithiazolyl-4-yl]-phenyl}-3-chloro-benzamide] |  | 1.1 | 1.4 | > 10000 | 39 | 
COc1cc(Nc2nc(N)c(-c3nc(-c4cccc(NC(=O)OCc5ccccc5)c4)no3)s2)cc(OC)c1OC [D(44), 3-[3-Benzyloxycarboxy-aminophenyl]-5-[2-[(3,4,5-trimethoxyphenyl)amino]-4-amino-5-thiazolyl]-1,2,4-oxadiazole] |  | 5.4 | 2.1 | > 10000 | 373 | 
COc1cc(Nc2nc(N)c(-c3nc(-c4cccc(NC(=O)c5cccc(C)c5)c4)no3)s2)cc(OC)c1OC [D(47), 3-[3-(3-Methylbenzamido)phenyl]-5-[2-[(3,4,5-trimethoxyphenyl)amino]-4-amino-5-thiazolyl]-1,2,4-oxadiazole] |  | 1.1 | 0.34 | > 10000 | 13 | 
COc1cc(Nc2nc(N)c(-c3nc(-c4cccc(NC(=O)c5cccc(Cl)c5)c4)no3)s2)cc(OC)c1OC [D(50), 3-[3-(3-Chlorobenzamido)phenyl]-5-[2-[(3,4,5-trimethoxyphenyl)amino]-4-amino-5-thiazolyl]-1,2,4-oxadiazole] |  | 1.4 |  | > 10000 | 17 | 
